We go through two compounds from US20030100540A1, “Identification of NSAID-regulated genes” (Vanderbilt University, priority 2001, published 2003).

Entries after “also recorded” stand apart in the source; their conditions may differ.

Data set [1] concerns HCA-7 cells. The data set can be described thus: Differential gene expression after NS-398 treatment (SSH, differential screening, Northern blotting). Type of data set: cell-based. How it is done:
Cell culture. The HCA-7 cells, which are derived from a rectal carcinoma, were kindly provided by Dr. Susan Kirkland (ICRF, London, UK). Cells were cultured at 37° C. with 5% CO2 in McCoy's 5A medium containing penicillin, streptomycin, 10% FBS (Life Technologies, Inc., Grand Island, N.Y.). NS-398 and nimesulide (Cayman chemicals, Ann Arbor, Mich.), sulindac sulfide (Merck & Co., Rahway, N.J.) and SC-58125 (G.D. Searle Co., St. Louis, Mo.) were dissolved in DMSO prior to addition to cell culture medium. Experimental controls were treated with 0.1% DMSO.
mRNA isolation. Total cellular RNA was isolated using Tri-Reagent (Molecular Research Center, Inc., Cincinnati, Ohio) and polyadenylated RNA was isolated using a mRNA Purification Kit (Amersham Pharmacia Biotech, Inc., Piscataway, N.J.).
Suppression subtractive hybridization. SSH was performed with the PCR-Select™ cDNA Subtraction Kit (Clontech Laboratories Inc., Palo Alto, Calif.) as described by the manufacturer except for slight modifications of the PCR and hybridization conditions. Starting material consisted of 2 μg of mRNA from NS-398 treated HCA-7 cells and 2 μg of mRNA from control cells. After synthesis of the first and second cDNA strands, the cDNA was digested with Rsa I to obtain shorter, blunt-ended molecules. Then ligation of two different adapters to the cDNA fragments was performed separately. The adapter sequences were as follows: 5′-[…]-3′ (adapter 1-SEQ ID NO: 52) and 5′-[…]-3′ (adapter 2R-SEQ ID NO: 53). For the first round hybridization, the mixture of driver and tester cDNA were denatured at 98° C. for 1.5 min and then maintained at 68° C. for ˜10 h. For the second round hybridization, driver cDNA was denatured at 98° C. for 1.5 min and then added to the mixture of the two previous hybridization and allowed to incubate at 68° C. for ˜18 h.
After two rounds of hybridization, two rounds of PCR were performed to amplify the specific, differentially expressed cDNA fragments. All PCR reactions were performed using a PTC-100 thermal cycler (MJ Research, Inc. Watertown, Mass.). The primer used in first round is 5′-[…]-3′ (primer 1-SEQ ID NO: 54) and the primers used in second round were 5′-[…]-3′ (nested primer 1-SEQ ID NO: 55) and 5′-[…]-3′ (nested primer 2R -SEQ ID NO: 56). Cycling parameters are as follows: for the first round, 27 cycles of 94° C. for 30 s, 64° C. for 30 s and 71° C. for 1.5 min; for the second round, 15 cycles of 94° C. for 30 s, 68° C. for 30 s and 72° C. for 1.5 min.
To evaluate subtractive efficiency, the same amount of subtracted and unsubtracted secondary PCR products were applied as templates, and GAPDH primers were used to perform PCR. The PCR products were examined in a 2.0% agarose/EtBr gel to detect the abundance of GAPDH. After evaluation of the subtractive efficiency, the subtracted PCR products were cloned directly into the pCR2.1-TOPO vector (InVitrogen, Carlsbad, Calif.). Plates were incubated at 37° C. until small clones were visible and the blue/white staining could be clearly distinguished.
Differential screening. Differential screening was performed by using the PCR-Select™ Differential Screening Kit (Clontech) according to the users manual. After picking the recombinant clones from the subtractive library and identifying them by restriction digestion, the insert was PCR amplified in 20 μl volume reactions using nested PCR primer 1 and 2R. After amplification, 5 μl of the PCR product was denatured with 5 μl of 0.6 N NaOH and then 1.5 μl of each mixture was transferred to a nylon membrane. Each cDNA fragment was arrayed in duplicate in each blot and two identical blots were prepared for hybridization with different probes. The total secondary PCR amplified products from the forward and reverse SSH were used as probes. After washing, the membranes were exposed overnight to Kodak BioMax MR x-ray film (Eastman Kodak Company, Rochester, N.Y.) with and intensifying screen at −70° C.
Northern blotting. […]

The test system of data set [2] is HCA-7 cells. The data set can be described thus: HCA-7 cell growth following treatment. The class given is cell-based. The settings on record: following treatment with NS-398.
Data set [3] deals with different types of cancer cell lines. The note with it: cited from earlier work.
Data set [4] deals with AOM induced colon carcinogenesis. The settings on record: AOM induced colon carcinogenesis rat model; cited from earlier work.
The subject of a further data set is NNK-induced lung cancer. The settings on record: NNK-induced lung cancer model; cited from earlier work.
In data set [5] the test system is human colon carcinoma cells. The settings on record: cited from earlier work.
Another data set relates to prostate carcinoma cells. The settings on record: cited from earlier work.
The subject of the next data set is angiogenesis. The settings on record: cited from earlier work.
For data set [6] the following is noted: cited from earlier work.
The conditions of data set [7]: cited from earlier work. This is another data set of the same source.
Where [8] appears, read: 100 μM NS-398 for 4 days, down = decreased levels following treatment, -fold decrease.
[9] abbreviates: 100 μM NS-398 for 4 days, up = increased levels following treatment, -fold increase.

With `CS(=O)(=O)Nc1ccc([N+](=O)[O-])cc1OC1CCCCC1` [NS-398], in the data set on HCA-7 cells [1] (setting [8]), the “Regulation by NS-398: Cyclin K (AF060515)” value is reported as “down (2.1) fold”, the “Regulation by NS-398: KIAA0101 (D14657)” value is reported as “down (2.7) fold” and the “Regulation by NS-398: Proliferation associated p100 protein (AF098158)” value was “down (2.2) fold”. Besides, in the data set with HCA-7 cells [1] (setting [9]), the “Regulation by NS-398: Dynamin 2 (NM_004945)” value is listed as “up (3.1) fold”; the “Regulation by NS-398: ENH, LIM protein (similar to rat protein kinase C-binding enigma) (NM_006457)” value is listed as “up (3.0) fold”; the “Regulation by NS-398: FAT tumor suppressor (Drosophila) homolog (NM_005245)” value is “up (4.4) fold”; the “Regulation by NS-398: LIP.1 (LAR-interacting protein 1b) (U22816)” value was “up (3.4) fold”. Further, in the data set on HCA-7 cells [1] (setting [9]), the “Regulation by NS-398: PCDH7 (BH-Pcdh) (AB06757)” value was “up (26.0) fold” and the “Regulation by NS-398: Pdcd4 (Programmed cell death) (NM_011050)” value is “up (1.5) fold”. The “Regulation of named genes by NS-398, stated in words” value in the data set with HCA-7 cells [1] (gene named in the value) is “genes that were down-regulated by NS-398, one was designated as NRG-1; also recorded: Cyclin K was found to be down-regulated; also recorded: Pdcd4, Dynamin 2 and LIP.1 are all up-regulated; also recorded: ENH is a LIM protein whose levels are increased”. In the data set on HCA-7 cells [2], the “Inhibition of HCA-7 cell growth” value is recorded as “significant inhibition”. Moreover, the “Effect on tumor growth” value in data set [3] is recorded as “suppress tumor growth”. In addition, the Chemopreventive effects entry in data set [4] is recorded as “chemopreventive effects”. Also, the Chemopreventive effects entry with NNK-induced lung cancer is on record as “chemopreventive effects”. Further, the Induction of apoptosis entry in data set [5] was “induce apoptosis”. Besides, the Induction of apoptosis result with prostate carcinoma cells is given as “induce apoptosis”. For the same compound, in the data set on angiogenesis, the Anti-angiogenic effects result was “anti-angiogenic effects”.
For `CC1=C(CC(=O)O)c2cc(F)ccc2/C1=C\c1ccc([S+](C)[O-])cc1` (stereo not drawn) [sulindac, (Z)-5-Fluoro-2-methyl-1-((4(methylsulfinyl)phenyl)methylene) 1H-indene-3-acetic acid], the “Drug absorbed after oral administration” value in data set [6] is recorded as “about 90%”. Besides, the “Time to peak plasma levels” value in data set [6] (fasting patients, oral) is reported as “about 2 hours”. The “Mild gastrointestinal effects, share of patients” value in [7] (abdominal pain and nausea most frequent) is about 20%. The “Skin rash and pruritus, share of patients” value in data set [7] (human, in vivo) is 5%.
